Assay results as given in patent US6150361A, “Triazineone compounds for treating diseases due to sarcosystis, neospora and toxoplasma” (Bayer Corporation, priority 1998, dated 2000).
Several values for one entry are separate records, joined by “and”; a condition that tells them apart may be missing. Identical values can stand only once. Entries after “also recorded” stand apart in the source; their conditions may differ.

What was measured:
[1] = Pharmacokinetics of a single oral dose of Toltrazuril in horses (blood levels); type: in vivo; conditions: single oral dose of Toltrazuril 10 mg/kg
Experimental: A pharmacokinetic study was conducted in horses comparing blood levels of Toltrazuril, Ponazuril and Toltrazuril Sulfoxide at various times post a single dose of Toltrazuril. All horses received a single dose of 10 mg/kg, which was administered orally as a suspension. Blood samples were drawn at the time of treatment (0) and at 0.25, 0.5, 1, 2, 4, 6, 12, 24, 48 and 72 hours post treatment. […] This was an indication that Ponazuril, alone, would produce acceptable blood levels that are envisioned to pass the blood-brain barrier, a characteristic required to treat neurological diseases such as those caused by Sarcocystis neurona, Toxoplasma gondii, Neospora caninum and Neospora

Neospora caninum NC-1 = test: Microtiter Monolayer Disruption Assay (MMDA), Neospora caninum; type: cell-based, Neospora caninum strain NC-1; conditions: BT cells
Experimental: In order to determine the scope of protection provided by Ponazuril, in vitro testing was conducted. The following strains of parasites were evaluated for their sensitivity to this compound: Strain SN3 of Sarcocystis neurona; strain SF1 of Sarcocystis falcatula; strain RH of Toxoplasma gondii; and the NC-1 strain of Neospora caninum. […]
Bovine turbinate (BT) cells were used for all in vitro studies. Cells were grown to confluency in 25 cm^2 flasks in RMPI 1640 media supplemented with 10% v/v fetal bovine serum (FBS), 100 Units penicillin (G/mL), […] streptomycin/mL and 5×10^-2 mM 2-mercpatoethanol. After cell confluence was obtained, cells were maintained in the same media with reduced FBS (2% v/v). Cell cultures were incubated at 37 C. in a humidified atmosphere containing 5% carbon dioxide and 95% air.
For growth of parasites, BT cell monolayers were infected with parasites and examined with an inverted microscope for the development of lesions (cytopathic effect, "CPE") or the presence of many extracellular merozoites. Once lesions were observed, or many extracellular parasites were present, the monolayer was scraped with the tip of a 5 mL pipette and 1 to 3 drops of the merozoite-containing fluid was transferred to two flasks of fresh BT cells. Merozoites of S. neurona and S. falcatula were passaged in this manner every 5 to 10 days while the tachyzoites of T. gondii and N. caninum were passaged every 3 to 4 days.
The assay used to determine the effectiveness of Ponazuril was the Microtiter Monolayer Disruption Assay (MMDA). This assay was used to determine if the parasites or compound were toxic for BT cells. Flat bottomed 96-well microtiter plates were inoculated with BT cells and the resulting monolayers were used to determine the effects of Toltrazuril and Ponazuril on merozoite production as measured by CPE (plaque formation). […]

[2] = Passing of the blood-brain barrier in horses; type: in vivo; conditions: after oral Toltrazuril daily for 10 days
Experimental: This experiment was conducted in order to determine whether triazineones such as Toltrazuril can pass the blood-brain barrier. Normal horses were divided into three groups of three horses per group. Group 1 horses received Toltrazuril administered orally as a 5% suspension at a dose level of 2.5 mg/Kg. Group 2 horses received Toltrazuril administered orally as a 5% suspension at a dose level of 5.0 mg/Kg. Group 3 horses received Toltrazuril administered orally as a 5% suspension at a dose level of 7.5 mg/Kg. The dosing was repeated daily for 10 days. Blood samples were drawn at 48, 96 and 240 hours and the concentration of Toltrazuril, Toltrazuril sulfoxide and Ponazuril in the serum was measured. Ten days after the start of the treatment (Day 10), a sample of cerebral spinal fluid was removed from each horse and the concentrations of Toltrazuril, Toltrazuril Sulfoxide and Ponazuril were again measured in these samples. The concentrations of Toltrazuril, Toltrazuril Sulfoxide and Ponazuril in the serum and cerebral spinal fluid are reported in TABLES 5a and 5b.

With `Cc1cc(-n2c(=O)[nH]c(=O)n(C)c2=O)ccc1Oc1ccc(S(=O)(=O)C(F)(F)F)cc1` [Ponazuril] the concentration at 0.25 h ([1]; horse, blood, po, 10 mg/kg, suspension, 0.25 h post treatment, one value per horse (A-F), read-out: Concentration in mg/l of Blood, 0.25 hours) was 0.01 mg/L, the concentration at 24 h ([1]; horse, blood, po, 10 mg/kg, suspension, 24 h post treatment, one value per horse (A-F), read-out: Concentration in mg/l of Blood, 24 hours) was 0.324 mg/L and the “levels in serum/bloodstream of horses receiving Toltrazuril (in words)” value [1] was “relatively high levels”. The “Concentration in mg/l of Blood, 0.25 hours” value ([1]; suspension, 0.25 h post treatment, one value per horse (A-F), 10 mg/kg, 15 min) was under 0.01 mg/L, the “Concentration in mg/l of Blood, 6 hours” value ([1]; suspension, 6 h post treatment, one value per horse (A-F), 10 mg/kg, 360 min) was 0.061 mg/L and the “Concentration in mg/l of Blood, 24 hours” value ([1]; suspension, 24 h post treatment, one value per horse (A-F), 10 mg/kg, 1440 min) was 0.255 mg/L and 0.315 mg/L and 0.231 mg/L and 0.192 mg/L. For the same compound, the inhibition at 0.001 µg/mL (Neospora caninum NC-1; 0.001 μg/mL, read-out: Percent Inhibition of Cell Destruction, 0.001 μg/mL) was 3%, the inhibition at 0.01 µg/mL (Neospora caninum NC-1; 0.01 μg/mL, read-out: Percent Inhibition of Cell Destruction, 0.01 μg/mL) was 13% and the inhibition at 1 µg/mL (Neospora caninum NC-1; 1.0 μg/mL, read-out: Percent Inhibition of Cell Destruction, 1.0 μg/mL) was 100%. For the same compound, the “crossing of the blood-brain barrier” value [2] was “effectively cross the blood-brain barrier; also recorded: crosses this barrier more effectively than does Toltrazuril”.
